Square brackets hold non-standard residues; d marks the D form. Ends that are not written are not given here. * marks the point of attachment. Phe(4-NO2) = N[C@@H](Cc1ccc([N+](=O)[O-])cc1)C(=O)O; pNA = O=[N+]([O-])c1ccc(N*)cc1; Nle = CCCC[C@H](N)C(=O)O
Columns and labels:
Assay type in all cases: biochemical
human pepsin I [1] = assay: Digestion of the substrate by human pepsin I, assay by HPLC (released H-Y-pNA); details: for ratio of relative activity of pepsin I/pepsin II: calculated according to the result from assay by HPLC; for Activitry of pepsin, Determination by HPLC, pepsin I: pepsin 909 ng/ml, substrate 0.5 mM, 37° C.
Procedure: (§1) Formic acid buffer or glycine buffer (pH2.0˜3.0) containing each peptide (0.5 mM) prepared in Example 1˜5 (a)
(§2) An aqueous solution of human pepsin I or human pepsin II (0.01 mg/ml)
(§3) Enzyme solution I (0.1 ml) was added to Reagent (1.0 ml). After incubation of the mixture at 37° C. for 10, 30, 60 minutes, the mixture solution (0.3 ml) was collected. To the collected solution, 2N—NaOH (0.025 ml) was added to terminate the reaction. After addition of 2N—HCl (0.025 ml) to the mixture, protein was removed by the ultrafiltration. The assaying H-Y-pNA (Nle-pNA: Example 1 and 2; Tyr-pNA: Example 3; Phe-pNA: Example 4; Phe(NO2)-pNA: Example 5) which was released after digesting by human pepsin in the obtained solution was carried out by HPLC using C18 column.
(§4) The ratio of pepsin I/pepsin II was calculated according to the result from assay by HPLC. Such assay is carried out to confirm that a substrate was digested by pepsin I or pepsin II correctly and that H-Y-pNA was released.

human pepsin I [2] = assay: Digestion of the substrate by human pepsin I, assay by coloring p-NA (aminopeptidase M, absorbance at 405 nm); details: substrate 0.5 mM, 37° C.
Procedure: as §1, §2
(§5) Aminopeptidase M (marketed from Beringer Manheim Co., derived from pig kidney) was dissolved into 1M Tris-HCl buffer (pH9.0) to be at concentration of 2U/I.
(§6) (2) Assay by Coloring p-NA
(§7) Enzyme solution I (0.1 ml) was added to Reagent (1.0 ml). After incubation of the mixture at 37° C. for 10 minutes, Enzyme solution II (0.05 ml) was added to the mixture solution (0.25 ml). After incubation of the mixture at 37° C. for 5 minutes, the increase in absorbance at 405 nm (Es) was determined. On the other hand, reagent blank value (E(BL)) was determined by the same procedure as above using purified water. According to the following, the increase in absorbance (E) was calculated.

human pepsin II [3] = biological target: T1, human pepsin II (Homo sapiens, UniProt P20142); assay: Digestion of the substrate by human pepsin II, assay by HPLC (released H-Y-pNA); details: pepsin 909 ng/ml, substrate 0.5 mM, 37° C.
T1 sequence (P20142 60-388): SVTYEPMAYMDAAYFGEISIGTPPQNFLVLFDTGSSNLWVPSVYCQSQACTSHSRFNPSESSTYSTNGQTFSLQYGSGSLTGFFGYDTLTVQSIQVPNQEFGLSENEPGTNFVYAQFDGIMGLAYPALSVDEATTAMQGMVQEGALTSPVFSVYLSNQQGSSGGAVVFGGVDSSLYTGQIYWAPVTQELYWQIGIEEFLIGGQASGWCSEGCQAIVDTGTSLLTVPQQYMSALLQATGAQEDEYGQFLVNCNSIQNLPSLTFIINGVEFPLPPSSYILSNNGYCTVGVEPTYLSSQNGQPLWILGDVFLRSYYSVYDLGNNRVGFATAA
Procedure: as §1, §2, §3, §4

human pepsin II [4] = biological target: T1, human pepsin II; assay: Digestion of the substrate by human pepsin II, assay by coloring p-NA (aminopeptidase M, absorbance at 405 nm); details: substrate 0.5 mM, 37° C.
Procedure: as §1, §2, §5, §6, §7

[5] = reaction pH 3.0, pepsin 909 ng/ml
[6] = reaction pH 2.0, pepsin 909 ng/ml

| Substance | ratio of relative activity of pepsin I/pepsin II (human pepsin I [1]; reaction pH 3.0) | Activitry of pepsin, Determination by HPLC, pepsin I (human pepsin I [1]; reaction pH 3.0) [μM/min · 909 ngEnz/ml] | Activitry of pepsin, Determination by p-NA, pepsin I (human pepsin I [2]; [5]) | Activitry of pepsin, Determination by HPLC, pepsin II (human pepsin II [3]; reaction pH 3.0) [μM/min · 909 ngEnz/ml] | Activitry of pepsin, Determination by p-NA, pepsin II (human pepsin II [4]; [5]) | ratio of relative activity of pepsin I/pepsin II (human pepsin I [1]; reaction pH 2.0) | Activitry of pepsin, Determination by HPLC, pepsin I (human pepsin I [1]; reaction pH 2.0) [μM/min · 909 ngEnz/ml] | Activitry of pepsin, Determination by p-NA, pepsin I (human pepsin I [2]; [6]) | Activitry of pepsin, Determination by HPLC, pepsin II (human pepsin II [3]; reaction pH 2.0) [μM/min · 909 ngEnz/ml] | Activitry of pepsin, Determination by p-NA, pepsin II (human pepsin II [4]; [6]) |
| --- | --- | --- | --- | --- | --- | --- | --- | --- | --- | --- |
| LysProIleGluPheNle-pNA.2CF3COOH (KPIEF[Nle]-pNA; also: trifluoroacetate salt (2CF3COOH)) [Example 2] | 23.2 | 8.6 | 716.7 mABS/10 min · 909 ngEnz/ml | 0.37 | 30.8 mABS/10 min · 909 ngEnz/ml | – | – | – | – | – |
| LysProIleGluPhePhe(NO2)-pNA.2CF3COOH (KPIEF[Phe(4-NO2)]-pNA; also: 2 TFA salt) [Example 5] | 17.1 | 1.2 | 100.0 mABS/10 min · 909 ngEnz/ml | 0.07 | 5.8 mABS/10 min · 909 ngEnz/ml | – | – | – | – | – |
| LysProIleGluPhePhe-pNA -2CF3COOH (KPIEFF-pNA; also: trifluoroacetate salt (2CF3COOH)) [Example 4] | 68.1 | 10.9 | 908.3 mABS/10 min · 909 ngEnz/ml | 0.16 | 13.3 mABS/10 min · 909 ngEnz/ml | – | – | – | – | – |
| LysProIleGluPheTyr-pNA.2CF3COOH (KPIEFY-pNA; also: TFA salt (2CF3COOH)) [Example 3] | – | – | – | – | – | 46.2 | 17.1 | 1425.0 mABS/10 min · 909 ngEnz/ml | 0.37 | 30.8 mABS/10 min · 909 ngEnz/ml |
| N^α-Ac-LysProIleGluPheNle-pNA.CF3COOH (Ac-KPIEF[Nle]-pNA; also: TFA salt) [Example 1] | – | – | – | – | – | 95.8 | 52.7 | 4391.7 mABS/10 min · 909 ngEnz/ml | 0.55 | 45.8 mABS/10 min · 909 ngEnz/ml |
| N^α-AcLysProIleGlu-Phe(NO2)-Nle-pNA.CF3COOH (Ac-KPIE[Phe(4-NO2)][Nle]-pNA; also: TFA salt) [Example 5(a)] | – | – | – | – | – | 52.8 | 36.4 | 3036.2 mABS/10 min · 909 ngEnz/ml | 0.69 | 57.3 mABS/10 min · 909 ngEnz/ml |
